Assay [1] has as its target Tyrosine-protein kinase Blk (Mus musculus) (UniProt P16277). Put plainly: Inhibition of B lymphoid tyrosine kinase. Also on record: scale not given: the % may be the effect or the level left.
In assay [2] the target is Ca2+/calmodulin-dependent protein kinase II (CaM kinase II) (Rattus norvegicus) (UniProt P11275+P08413+P15791+P11730). The assay can be described thus: Inhibition of Calcium/calmodulin-dependent protein kinase type II. The assay is classed as protein assay. Also noted: scale not given: the % may be the effect or the level left.
Assay [3] deals with Cyclin-dependent kinase 5/CDK5 activator 1 (Homo sapiens) (UniProt Q00535+Q15078). Put plainly: Inhibition of Cyclin-dependent kinase 5-p35nck5a. The assay is classed as protein-complex assay. Also noted: scale not given: the % may be the effect or the level left.
The target of assay [4] is Fibroblast growth factor receptor 3 (Homo sapiens) (UniProt P22607). The assay can be described thus: Inhibition of Fibroblast growth factor receptor 3. Also on record: scale not given: the % may be the effect or the level left.
Assay [5] has as its target Protein kinase C alpha type (Homo sapiens, UniProt P17252). Put plainly: Inhibitory activity of 10 uM compound against protein kinase C-alpha using histone as substrate.
In assay [6] the target is Platelet-derived growth factor receptor beta (Homo sapiens) (UniProt P09619). The assay can be described thus: Inhibition of PDGFRbeta. Also on record: scale not given: the % may be the effect or the level left.
Assay [7] has as its target T1, Protein kinase C epsilon type (Homo sapiens) (UniProt Q02156).
T1 sequence (whole entry): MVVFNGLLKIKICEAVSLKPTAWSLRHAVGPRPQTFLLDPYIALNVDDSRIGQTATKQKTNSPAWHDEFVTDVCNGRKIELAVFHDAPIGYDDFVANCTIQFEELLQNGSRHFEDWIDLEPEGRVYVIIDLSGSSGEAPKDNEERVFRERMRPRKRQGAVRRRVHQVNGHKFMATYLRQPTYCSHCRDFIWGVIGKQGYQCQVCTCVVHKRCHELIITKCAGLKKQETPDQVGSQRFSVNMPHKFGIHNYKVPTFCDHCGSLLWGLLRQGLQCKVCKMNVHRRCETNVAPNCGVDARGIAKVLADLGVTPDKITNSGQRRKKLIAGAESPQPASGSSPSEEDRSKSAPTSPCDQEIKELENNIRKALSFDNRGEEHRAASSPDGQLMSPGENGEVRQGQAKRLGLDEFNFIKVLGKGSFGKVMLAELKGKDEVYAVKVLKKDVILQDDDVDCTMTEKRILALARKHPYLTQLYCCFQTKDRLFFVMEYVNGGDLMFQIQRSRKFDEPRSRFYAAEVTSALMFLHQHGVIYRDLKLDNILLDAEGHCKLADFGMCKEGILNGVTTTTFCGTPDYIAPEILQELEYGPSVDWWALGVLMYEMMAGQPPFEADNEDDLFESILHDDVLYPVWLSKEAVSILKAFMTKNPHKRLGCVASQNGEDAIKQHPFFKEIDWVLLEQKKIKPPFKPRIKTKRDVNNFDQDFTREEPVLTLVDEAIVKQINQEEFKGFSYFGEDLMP
The assay can be described thus: Inhibition of PKCepsilon. Also on record: scale not given: the % may be the effect or the level left.

Assay [8] concerns the target Tyrosine-protein kinase Lyn (Mus musculus) (UniProt P25911). Put plainly: Inhibition of Protein tyrosine kinase Lyn. Also noted: scale not given: the % may be the effect or the level left.
The target of assay [9] is Ribosomal protein S6 kinase alpha-2 (Homo sapiens) (UniProt Q15349). Put plainly: Inhibition of Ribosomal S6 kinase 2. Also on record: scale not given: the % may be the effect or the level left.
Assay [10] has as its target T2, Serine/threonine-protein kinase Sgk1 (Homo sapiens) (UniProt O00141).
T2 sequence (whole entry): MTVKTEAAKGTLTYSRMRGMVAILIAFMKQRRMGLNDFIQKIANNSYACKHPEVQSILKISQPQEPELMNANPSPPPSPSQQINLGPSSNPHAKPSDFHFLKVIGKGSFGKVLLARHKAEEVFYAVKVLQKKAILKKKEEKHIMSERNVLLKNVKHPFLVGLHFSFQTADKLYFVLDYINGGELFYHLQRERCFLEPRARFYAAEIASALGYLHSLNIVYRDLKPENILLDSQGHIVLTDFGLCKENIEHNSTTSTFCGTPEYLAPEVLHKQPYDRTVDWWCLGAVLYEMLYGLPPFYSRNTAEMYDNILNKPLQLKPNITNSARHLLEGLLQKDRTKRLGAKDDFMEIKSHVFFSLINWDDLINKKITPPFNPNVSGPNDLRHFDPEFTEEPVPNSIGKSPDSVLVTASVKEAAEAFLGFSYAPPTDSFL
The assay can be described thus: Inhibition of Serum/glucocorticoid regulated kinase. Also on record: scale not given: the % may be the effect or the level left.

The target in assay [11] is T3, Mitogen-activated protein kinase 13 (Homo sapiens) (UniProt O15264).
T3 sequence (whole entry): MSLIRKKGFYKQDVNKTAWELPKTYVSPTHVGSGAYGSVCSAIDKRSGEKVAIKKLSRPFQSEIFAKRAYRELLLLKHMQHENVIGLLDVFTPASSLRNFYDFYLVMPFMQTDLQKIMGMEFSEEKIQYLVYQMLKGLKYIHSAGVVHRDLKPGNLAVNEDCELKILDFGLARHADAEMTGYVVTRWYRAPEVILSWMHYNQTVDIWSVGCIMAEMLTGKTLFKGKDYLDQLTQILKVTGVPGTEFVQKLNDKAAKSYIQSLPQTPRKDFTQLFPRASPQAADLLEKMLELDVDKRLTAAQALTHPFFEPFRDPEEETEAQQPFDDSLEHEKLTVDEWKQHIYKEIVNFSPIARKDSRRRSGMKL
Put plainly: Inhibition of Stress activated protein kinase 4. Also noted: scale not given: the % may be the effect or the level left.

Assay [12] has as its target Tyrosine-protein kinase CSK (Homo sapiens) (UniProt P41240). The assay can be described thus: Inhibition of Tyrosine-protein kinase CSK. Also noted: scale not given: the % may be the effect or the level left.
For assay [13], the target named is Tyrosine-protein kinase Yes (Homo sapiens) (UniProt P07947). Put plainly: Inhibition of Yes tyrosine kinase. Also on record: scale not given: the % may be the effect or the level left.
Assay [14] has as its target T4, Tyrosine-protein kinase ZAP-70 (Homo sapiens) (UniProt P43403).
T4 sequence (whole entry): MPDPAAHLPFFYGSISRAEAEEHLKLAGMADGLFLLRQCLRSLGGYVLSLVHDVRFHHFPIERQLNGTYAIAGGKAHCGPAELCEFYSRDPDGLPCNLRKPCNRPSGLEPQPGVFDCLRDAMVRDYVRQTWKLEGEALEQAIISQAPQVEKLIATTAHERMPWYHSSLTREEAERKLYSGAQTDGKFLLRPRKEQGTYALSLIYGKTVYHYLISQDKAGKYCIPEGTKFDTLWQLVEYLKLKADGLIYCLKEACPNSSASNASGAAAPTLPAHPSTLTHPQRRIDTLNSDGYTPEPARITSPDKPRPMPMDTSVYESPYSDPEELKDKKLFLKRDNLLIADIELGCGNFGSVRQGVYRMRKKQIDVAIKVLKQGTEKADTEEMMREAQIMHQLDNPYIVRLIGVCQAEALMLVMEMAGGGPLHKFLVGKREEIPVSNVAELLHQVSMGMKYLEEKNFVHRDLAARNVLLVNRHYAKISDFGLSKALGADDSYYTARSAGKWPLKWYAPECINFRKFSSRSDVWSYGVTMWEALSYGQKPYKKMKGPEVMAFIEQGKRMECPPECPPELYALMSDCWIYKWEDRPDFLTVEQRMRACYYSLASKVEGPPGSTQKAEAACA
Put plainly: Inhibition of Zeta-chain (TCR) associated protein kinase 70 kDa (ZAP70). Also noted: scale not given: the % may be the effect or the level left.

Assay [15] concerns the target Tyrosine-protein kinase Lck (Homo sapiens) (UniProt P06239). Put plainly: Inhibition of p56 Lck tyrosine kinase. Also on record: scale not given: the % may be the effect or the level left.
Another assay is filed under the species Mus musculus. Put plainly: Inhibition of Abl kinase. Also on record: scale not given: the % may be the effect or the level left.
The target in assay [16] is Mitogen-activated protein kinase 10 (Rattus norvegicus) (UniProt P49187). The assay can be described thus: Inhibition of c-Jun N-terminal kinase 3. Also on record: scale not given: the % may be the effect or the level left.
Sequence of Mitogen-activated protein kinase 10 (Rattus norvegicus) (P49187 whole entry, looked up): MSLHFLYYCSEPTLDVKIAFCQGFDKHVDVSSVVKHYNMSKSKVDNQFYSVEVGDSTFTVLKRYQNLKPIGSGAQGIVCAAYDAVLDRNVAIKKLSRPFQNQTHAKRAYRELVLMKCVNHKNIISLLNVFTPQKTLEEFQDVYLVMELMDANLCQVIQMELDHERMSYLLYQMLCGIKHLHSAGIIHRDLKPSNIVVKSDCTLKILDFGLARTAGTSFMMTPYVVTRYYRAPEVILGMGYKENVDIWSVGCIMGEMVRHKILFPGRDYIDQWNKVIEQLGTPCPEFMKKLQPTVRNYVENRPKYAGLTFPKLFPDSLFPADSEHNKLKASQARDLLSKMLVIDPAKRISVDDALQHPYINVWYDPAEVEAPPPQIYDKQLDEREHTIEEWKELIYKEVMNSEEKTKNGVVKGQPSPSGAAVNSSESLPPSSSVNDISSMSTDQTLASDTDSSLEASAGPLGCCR

Sequence of Tyrosine-protein kinase Blk (Mus musculus) (P16277 whole entry): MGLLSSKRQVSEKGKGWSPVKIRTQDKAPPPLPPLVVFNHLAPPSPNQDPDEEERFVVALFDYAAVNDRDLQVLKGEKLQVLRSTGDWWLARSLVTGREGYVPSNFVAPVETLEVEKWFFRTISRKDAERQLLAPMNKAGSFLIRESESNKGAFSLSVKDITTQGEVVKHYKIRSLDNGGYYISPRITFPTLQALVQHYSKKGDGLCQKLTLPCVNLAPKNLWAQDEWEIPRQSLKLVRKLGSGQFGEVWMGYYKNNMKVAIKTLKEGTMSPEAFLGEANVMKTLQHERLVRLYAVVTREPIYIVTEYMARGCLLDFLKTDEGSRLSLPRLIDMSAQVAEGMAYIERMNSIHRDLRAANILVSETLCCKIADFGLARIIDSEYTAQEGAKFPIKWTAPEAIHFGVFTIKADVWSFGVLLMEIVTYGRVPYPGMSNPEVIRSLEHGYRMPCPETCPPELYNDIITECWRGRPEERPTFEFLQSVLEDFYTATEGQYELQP
Sequence of Tyrosine-protein kinase CSK (Homo sapiens) (P41240 2-450 limits assumed): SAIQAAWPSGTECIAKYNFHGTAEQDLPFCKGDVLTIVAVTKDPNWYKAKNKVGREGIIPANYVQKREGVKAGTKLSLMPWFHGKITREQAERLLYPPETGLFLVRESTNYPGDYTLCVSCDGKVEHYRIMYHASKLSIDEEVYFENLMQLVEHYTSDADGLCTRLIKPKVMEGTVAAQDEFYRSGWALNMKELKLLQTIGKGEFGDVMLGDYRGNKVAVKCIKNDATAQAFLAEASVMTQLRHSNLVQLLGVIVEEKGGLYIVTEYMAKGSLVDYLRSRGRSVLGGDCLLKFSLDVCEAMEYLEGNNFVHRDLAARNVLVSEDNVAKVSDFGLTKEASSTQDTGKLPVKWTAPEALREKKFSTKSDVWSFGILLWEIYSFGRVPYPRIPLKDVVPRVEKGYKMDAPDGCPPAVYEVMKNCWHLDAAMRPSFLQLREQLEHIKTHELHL
Sequence of Fibroblast growth factor receptor 3 (Homo sapiens) (P22607 23-806 limits assumed): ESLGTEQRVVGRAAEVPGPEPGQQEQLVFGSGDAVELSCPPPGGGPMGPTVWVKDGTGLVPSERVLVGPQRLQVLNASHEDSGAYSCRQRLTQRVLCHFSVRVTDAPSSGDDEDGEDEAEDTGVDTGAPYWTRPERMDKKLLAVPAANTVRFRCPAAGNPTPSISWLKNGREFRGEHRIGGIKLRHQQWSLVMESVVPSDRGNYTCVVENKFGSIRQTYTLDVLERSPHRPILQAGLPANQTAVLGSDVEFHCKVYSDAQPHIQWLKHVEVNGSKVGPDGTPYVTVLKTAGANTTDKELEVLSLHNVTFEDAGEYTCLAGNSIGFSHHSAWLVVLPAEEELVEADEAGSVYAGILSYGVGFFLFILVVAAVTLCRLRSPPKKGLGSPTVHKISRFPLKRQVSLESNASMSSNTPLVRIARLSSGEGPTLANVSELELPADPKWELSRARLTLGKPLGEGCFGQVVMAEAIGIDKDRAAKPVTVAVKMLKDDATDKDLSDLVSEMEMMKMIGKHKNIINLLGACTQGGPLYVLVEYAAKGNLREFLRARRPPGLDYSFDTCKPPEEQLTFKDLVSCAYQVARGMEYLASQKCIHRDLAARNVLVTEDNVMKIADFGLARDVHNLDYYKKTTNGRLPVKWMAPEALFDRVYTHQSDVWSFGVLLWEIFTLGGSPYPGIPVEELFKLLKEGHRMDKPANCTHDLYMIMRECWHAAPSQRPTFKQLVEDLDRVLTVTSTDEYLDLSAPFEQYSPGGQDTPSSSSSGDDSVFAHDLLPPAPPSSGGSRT
Sequence of Ribosomal protein S6 kinase alpha-2 (Homo sapiens) (Q15349 whole entry): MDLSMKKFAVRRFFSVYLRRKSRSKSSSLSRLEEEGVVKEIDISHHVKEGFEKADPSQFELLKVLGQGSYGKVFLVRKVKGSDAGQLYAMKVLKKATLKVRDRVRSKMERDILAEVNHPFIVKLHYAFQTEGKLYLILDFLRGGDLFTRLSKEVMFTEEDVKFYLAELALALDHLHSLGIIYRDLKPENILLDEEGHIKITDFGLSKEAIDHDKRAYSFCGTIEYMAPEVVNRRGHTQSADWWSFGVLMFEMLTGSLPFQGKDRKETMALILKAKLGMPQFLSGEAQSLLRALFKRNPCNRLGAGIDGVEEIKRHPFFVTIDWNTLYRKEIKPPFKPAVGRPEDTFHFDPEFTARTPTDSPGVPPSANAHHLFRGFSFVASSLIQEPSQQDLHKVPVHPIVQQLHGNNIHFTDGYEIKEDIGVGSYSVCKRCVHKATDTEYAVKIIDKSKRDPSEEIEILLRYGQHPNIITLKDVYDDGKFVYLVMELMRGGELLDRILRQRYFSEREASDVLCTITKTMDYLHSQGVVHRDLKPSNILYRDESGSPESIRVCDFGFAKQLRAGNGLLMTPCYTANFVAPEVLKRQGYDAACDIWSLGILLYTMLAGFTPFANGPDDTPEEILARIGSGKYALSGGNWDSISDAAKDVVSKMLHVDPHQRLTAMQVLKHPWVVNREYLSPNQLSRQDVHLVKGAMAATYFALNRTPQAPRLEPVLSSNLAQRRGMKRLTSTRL
Sequence of Tyrosine-protein kinase Lck (Homo sapiens) (P06239 2-509 limits assumed): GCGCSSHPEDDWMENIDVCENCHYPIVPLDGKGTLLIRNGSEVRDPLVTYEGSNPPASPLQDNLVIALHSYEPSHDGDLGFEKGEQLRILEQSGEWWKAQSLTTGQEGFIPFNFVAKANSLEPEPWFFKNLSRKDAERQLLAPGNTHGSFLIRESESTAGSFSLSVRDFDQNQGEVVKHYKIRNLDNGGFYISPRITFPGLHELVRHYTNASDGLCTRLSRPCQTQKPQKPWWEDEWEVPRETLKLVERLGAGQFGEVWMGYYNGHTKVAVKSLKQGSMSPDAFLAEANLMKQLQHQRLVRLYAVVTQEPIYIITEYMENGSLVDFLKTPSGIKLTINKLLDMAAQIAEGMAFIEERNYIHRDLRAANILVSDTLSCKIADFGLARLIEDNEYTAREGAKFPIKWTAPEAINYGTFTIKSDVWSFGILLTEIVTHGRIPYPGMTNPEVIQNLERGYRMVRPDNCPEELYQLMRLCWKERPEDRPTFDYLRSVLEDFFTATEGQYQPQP
Sequence of Tyrosine-protein kinase Lyn (Mus musculus) (P25911 whole entry): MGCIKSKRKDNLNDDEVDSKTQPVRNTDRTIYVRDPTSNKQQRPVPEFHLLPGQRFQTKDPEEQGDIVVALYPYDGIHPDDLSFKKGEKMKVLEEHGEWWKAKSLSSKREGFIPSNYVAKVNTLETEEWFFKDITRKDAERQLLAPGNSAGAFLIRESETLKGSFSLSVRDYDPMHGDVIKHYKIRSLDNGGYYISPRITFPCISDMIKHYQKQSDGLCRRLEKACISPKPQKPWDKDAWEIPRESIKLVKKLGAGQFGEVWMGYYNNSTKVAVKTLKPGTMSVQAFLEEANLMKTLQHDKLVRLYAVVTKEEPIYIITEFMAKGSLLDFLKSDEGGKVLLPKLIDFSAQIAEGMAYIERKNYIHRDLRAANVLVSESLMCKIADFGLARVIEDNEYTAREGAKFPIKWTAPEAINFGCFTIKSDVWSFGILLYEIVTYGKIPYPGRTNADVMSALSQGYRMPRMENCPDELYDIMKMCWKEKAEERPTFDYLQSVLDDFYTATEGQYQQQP

As usually defined, the inhibition is the drop in the measured response relative to a control, in per cent. Turning to `COc1ccccc1C1=C(c2cn(CCCNC(=O)OC(C)(C)C)c3ncccc23)C(=O)NC1=O`, the Activity came to 63% in [1]; 60% in [2]; 2% in assay [3]; 83% in assay [4]; 93% in assay [6]; 54% in [7]. Moreover, the Activity stood at 20% in assay [8]; 31% in assay [9]; 105% in assay [10]; 100% in [11]; 95% in assay [12]; 42% in assay [13]. The Activity in assay [14] stood at 112%; in assay [15], 67%; in the assay listed under Mus musculus it was 91%; in [16], 68%. This compound also returned an inhibition in [5] of less than 50%.
For the compound `COCCCn1cc(C2=C(c3ccccc3O)C(=O)NC2=O)c2cccnc21`, the Activity in assay [1] was determined as 75%; in assay [2], 63%; in assay [3] it was 9%; in assay [4], 79%; in [6] it was 96%; in assay [7], 49%. For the same compound, the Activity was 81% in assay [8]; 54% in assay [9]; 98% in assay [10]; 97% in assay [11]; 89% in assay [12]; 89% in [13]. Further, the Activity in assay [14] amounted to 100%; in assay [15] it was 84%; in the assay listed under Mus musculus it was 86%; in assay [16] it was 52%. The compound also registered an inhibition in [5] of less than 50%.
For `O=C1NC(=O)C(c2cn(CCCO)c3ncccc23)=C1c1ncc(C(F)(F)F)cc1Cl`, the Activity in [1] worked out at 67%; in [2], 76%; in assay [3] it was 25%; in [4], 64%; in assay [6], 77%; in assay [7], 67%. For the same compound, the Activity in assay [8] is 85%; in [9], 77%; in assay [10], 87%; in assay [11] it was 86%; in assay [12], 74%; in assay [13], 93%. Further, the Activity stood at 91% in assay [14], 82% in assay [15], 93% in the assay filed under Mus musculus and 76% in [16]. The inhibition in [5] is less than 50%.
